No end group written: not given here.
Key:
[1] = test system: feeder cell-independent ES cells (E14tg2a, CGR8); assay: Formation of colonies of undifferentiated ES cells in medium free of serum and feeder cells (GMEM + LIF + 2-ME + KSR), Leischman staining; type: cell-based, mouse; conditions: for relative potency of the colony-forming capability: comparison among candidate peptides / ACTH fragments; for capability to form a colony of undifferentiated cells: peptide at 1 μM in medium with LIF + 2-ME + KSR
Protocol: One hundred of the feeder cell-independent ES cells (E14tg2a (Hooper, M. et al., Nature, 325, 292 (1987)), CGR8 (Mountford, P. et al., Proc. Natl. Acad. Sci. USA, 91, 4303 (1994)), and ES cells derived therefrom) were incubated on the gelatinated 12-well plate treated with a 0.1% (w/v) gelatin solution at 37° C. in 5% CO2 in one ml of a culture medium of Glasgow minimum essential medium (GMEM; Sigma) used as a cell culture minimum medium supplemented with (1) 1×10^3 U/ml LIF (ESGRO, Invitrogen), (3) 0.1 μM 2-mercaptoethanol (Nacalai Tesque), and (5) 10% (v/v) KSR (Invitrogen) per well.
Five days or more after the incubation, the supernatant was removed by aspiration, and then a Leischman staining liquid (1.5 g Leischman Staining: Sigma/L methanol) was added to the plate until the liquid covered all of the surface of the plate. The plate was left at room temperature for 10 minutes, and rinsed with water (Leischman staining). For the blue-stained colonies, no formation of colonies that maintained their morphology in an undifferentiated state was shown by the naked eye and light microscopy (FIG. 1 (g)). When the ES cells were incubated in a culture medium wherein the medium described above was supplemented with 0.3% (v/v) FCS (2), an average of 17 colonies of undifferentiated cells was observed (FIG. 1 (d)). […] Further, a formation of colonies of undifferentiated cells was observed when the ES cells were incubated at 1000 or more per well in the culture medium having the same composition ((1)+(3)+(5)). When the conditioned medium (CM) was added to a culture medium at a final concentration of 10% (v/v), and 100 ES cells per well were incubated therein, then an average of 7 colonies of undifferentiated cells was observed (FIG. 1 (f)).
Subsequently, a candidate peptide that had been selected from diverse known growth factors, cytokines, peptide hormones and the like, was added to the culture medium comprising (1)+(3)+(5), and the ES cells were incubated therein at 37° C. in 5% CO2 so that a capability of the candidate to form a colony of undifferentiated cells was determined. […] It should be noted that FIG. 1 (a) to (c) show the results obtained from the medium consisting of GMEM, LIF and 2-ME, supplemented with FCS+feeder cells, KSR+feeder cells, and FCS, respectively.
In a similar manner to the above, ACTH and the fragments thereof were added to the culture medium at a final concentration of 1 μM wherein (1) LIF, (3) 2-ME, and (5) KSR were supplemented to a cell culture minimum medium.
ACHT has been known to activate an ACTH receptor belonging to G-protein-coupled receptor families, which receptor activates an adenylate cyclase activity through the activation of trimeric G proteins containing the Gα s subunit. Now, to a cell culture minimum medium supplemented with (1) 1×10^3 U/ml LIF, (3) 0.1 μM 2-ME, (5) 10% (v/v) KSR, and (6) 10 μM ACTH, an inhibitor of an adenylate cyclase activity, SQ22536 (9-(tetrahydro-2-furanyl)adenine) (Sigma) at 100 μM, was further added, and the resultant medium was used to culture the ES cells in a similar manner to that of Example 1.
In order to check the effect of sole SQ22536, a cell culture minimum medium supplemented with (1) 1×10^3 U/ml LIF, (3) 0.1 μM 2-ME, (5) 10% (v/v) KSR, and (7) SQ22536 100 μM was used to culture the ES cells in a similar manner to that of Example 1. As a result, an average of nine colonies of undifferentiated cells was observed. Further, even when the medium added with another inhibitor of an adenylate cyclase activity, 2′,5′-dideoxyadenosine (Sigma) 500 μM, was used, an average of eight colonies of undifferentiated cells was observed. […]

[2] = test system: ES cells injected into the mouse blastocyst; assay: Chimeric mouse production from ES cells injected into the mouse blastocyst (retention of pluripotency); type: in vivo; conditions: ES cells cultured with 1 nM adrenocorticotropic hormone
Protocol: The undifferentiated ES cells derived from the colonies obtained by the culture with 1 nM adrenocorticotropic hormone in Example 1 as described above were further subcultured twice, and the resultant cells were injected into the mouse blastocyst to complete the transplantation into the pseudopregnant mouse uterus.

[3] = test system: inner cell masses of C57BL/6 blastocysts; assay: Establishment of ES cell lines from inner cell masses of blastocysts in serum-free, feeder-free medium; type: cell-based, mouse; conditions: 10 μM ACTH, LIF, 2-ME, KSR, fibronectin-coated plate; thirty C57BL/6 embryos
Protocol: Thirty embryos at blastocyst stage of 3.5 days old were removed from C57BL/6 inbred mouse strains, and the inner cell masses isolated from the embryos by immunosurgery were individually incubated in the culture medium consisting of CCMM, (1) 1×10^3 U/ml LIF, (3) 0.1 μM 2-ME, 0.1 mM non-essential amino acids, 1 mM sodium pyruvate, (5) 10% (v/v) KSR, and (6) 10 μM ACTH on a plate coated with fibronectin.

[4] = SQ22536 100 μM added to medium with 10 μM ACTH, 7th day
[5] = 10 μM ACTH (1-24), compared with 0.3% FCS or 10% CM
[6] = pertussis toxin 100 ng/ml added to medium with 10 μM ACTH

`Nc1ncnc2c1ncn2C1CCCO1` (stereo not drawn) [SQ22536, 9-(tetrahydro-2-furanyl)adenine] was tested, and the “formation of colonies of undifferentiated cells” value [1, 4] was “no formation of colonies of undifferentiated cells was unexpectedly inhibited”, the “size of individual colonies” value [1, 4] was “significantly increased” and the “average number of colonies of undifferentiated cells” value ([1]; SQ22536 100 μM alone (no ACTH) in LIF + 2-ME + KSR medium) was “nine”.

“ACTH (1-24): fragment of ACTH, amino acids from the N-terminus 1 to 24” was tested, and the cell proliferation rate [1, 5] was “equivalent to that in the case of 0.3% FCS or 10% CM”, the “formation rate of undifferentiated cell colonies” value [1, 5] was “equivalent to that in the case of 0.3% FCS or 10% CM” and the “relative potency of the colony-forming capability” value [1] was “most potent capability among the fragments having a capability”. For the same molecule, the “formation of the colony of undifferentiated cells” value ([1]; final concentration of 0.1 μM) was “showed the formation of the colony of undifferentiated cells” and the “capability to form a colony of undifferentiated cells” value [1] was “showed to have the capability”.

With “adrenocorticotropic hormone (SYSMEHFRWGKPVGKKRRPVKVYPNGAEDESAEAFPLEF; Corticotropin; UniProt P01189 138-176, looked up) [ACTH, peptide hormone composed of 39 amino acid residues (ACTH (1-39))]” the “relative potency of the colony-forming capability” value [1] was “the capability at the lowest concentration among the candidate peptides”, the “capability to form a colony of undifferentiated cells” value ([1]; listed as ACTH (1-39)) was “showed to have the capability” and the “capability to form a colony of undifferentiated cells” value ([1]; listed as adrenocorticotropic hormone) was “formation of colonies of undifferentiated ES cells having the apparent morphology was observed”. For the same molecule, the “chimeric mice with an ES cell contribution ratio of 70% or more (hair color)” value [2] was 17 litters, the “contribution of the ES cells to the germ cell line (inbreeding)” value [2] was “the inbreeding showed the contribution of the ES cells to the germ cell line” and the “female litters among the 17 chimeric litters” value [2] was 14 litters. For the same molecule, the “litters survived three weeks or more after birth” value [2] was 30 litters, the “litters produced from 100 transplanted embryos” value ([2]; subcultured twice, injected into blastocyst) was 33 litters and the “inner cells that initiated proliferation and finally established ES cell lines” value [3] was “at least two”.

“pituitary adenylate cyclase activating polypeptide (HSDGIFTDSYSRYRKQMAVKKYLAAVLGKRYKQRVKNK; ends and bridges not checked; UniProt P18509 132-169, looked up)” was tested, and the “capability to form a colony of undifferentiated cells” value [1] was “formation of colonies of undifferentiated ES cells having the apparent morphology was observed”.

For “ACTH (18-39): fragment of ACTH, amino acids 18 to 39 (RPVKVYPNGAEDESAEAFPLEF; Corticotropin; UniProt P01189 155-176, looked up, fragment)”, the “capability to form a colony of undifferentiated cells” value [1] was “showed to have no capability”.

In the case of “ACTH (11-24): fragment of ACTH, amino acids 11 to 24 (KPVGKKRRPVKVYP; Corticotropin; UniProt P01189 148-161, looked up, fragment)”, the “capability to form a colony of undifferentiated cells” value [1] is reported as “showed to have the capability”.

For brain natriuretic peptide, the “capability to form a colony of undifferentiated cells” value [1] was “formation of colonies of undifferentiated ES cells having the apparent morphology was observed”.

For `C[C@H]1O[C@@H](n2cnc3c(N)ncnc32)C[C@@H]1O` [2′,5′-dideoxyadenosine], the “average number of colonies of undifferentiated cells” value ([1]; 2′,5′-dideoxyadenosine 500 μM in LIF + 2-ME + KSR medium) was “eight”.

With pertussis toxin the “effect of ACTH on colony formation” value [1, 6] was “the effect of ACTH was inhibited” and the “size of the colonies of undifferentiated cells” value [1, 6] was “drastically decreased”.
